Laboratory results: the OligoGym collection
HELM strings list units from the 5' end as sugar, base in round brackets, then linkage (d deoxyribose, r ribose, m 2'-O-methyl, p phosphodiester). Strings are as the collection lists them; they lack the last nucleoside at the 3' end of the tested compound. [moe] = 2'-O-(2-methoxyethyl) (MOE); [sp] = phosphorothioate linkage; [m5C] = 5-methylcytosine

The substances below were run against APP (assay: mouse, dose not given). Conditions: ASO.

In order of falling 3 h FOB score:
1. RNA1{[moe]([m5C])[sp].[moe](A)p.[moe](A)p.[moe](A)p.[moe](G)[sp].d(A)[sp].d(T)[sp].d(T)[sp].d([m5C])[sp].d([m5C])[sp].d(A)[sp].d([m5C])[sp].d(T)[sp].d(T)[sp].d(T)[sp].[moe]([m5C])p.[moe](T)p.[moe]([m5C])[sp].[moe]([m5C])}$$$$ (last 3' nucleoside missing)  7 score 0-7
2. RNA1{[moe](G)[sp].[moe](T)p.[moe](T)p.[moe]([m5C])p.[moe](A)[sp].d([m5C])[sp].d(A)[sp].d(G)[sp].d(T)[sp].d(T)[sp].d(T)[sp].d(A)[sp].d([m5C])[sp].d([m5C])[sp].d([m5C])[sp].[moe]([m5C])p.[moe](A)p.[moe](A)[sp].[moe](G)}$$$$ (last 3' nucleoside missing)  3.25 score 0-7
3. RNA1{[moe]([m5C])[sp].[moe](T)p.[moe]([m5C])p.[moe]([m5C])p.[moe](A)[sp].d(A)[sp].d(T)[sp].d(T)[sp].d(T)[sp].d(T)[sp].d(A)[sp].d(A)[sp].d([m5C])[sp].d(T)[sp].d(T)[sp].[moe](G)p.[moe]([m5C])p.[moe](A)[sp].[moe]([m5C])}$$$$ (last 3' nucleoside missing)  2.75 score 0-7
4. RNA1{[moe](A)[sp].[moe](T)p.[moe](G)p.[moe](T)p.[moe](T)[sp].d([m5C])[sp].d(A)[sp].d(T)[sp].d(T)[sp].d([m5C])[sp].d(T)[sp].d([m5C])[sp].d(A)[sp].d(T)[sp].d([m5C])[sp].[moe]([m5C])p.[moe]([m5C])p.[moe]([m5C])[sp].[moe](A)}$$$$ (last 3' nucleoside missing)  1 score 0-7
5. RNA1{[moe](T)[sp].[moe]([m5C])p.[moe]([m5C])p.[moe](G)p.[moe](A)[sp].d(G)[sp].d(T)[sp].d([m5C])[sp].d(A)[sp].d(T)[sp].d([m5C])[sp].d([m5C])[sp].d(T)[sp].d([m5C])[sp].d([m5C])[sp].[moe](T)p.[moe]([m5C])p.[moe]([m5C])[sp].[moe](G)}$$$$ (last 3' nucleoside missing)  1 score 0-7
6. RNA1{[moe](G)[sp].[moe](T)p.[moe](T)p.[moe](T)p.[moe]([m5C])[sp].d(G)[sp].d([m5C])[sp].d(A)[sp].d(A)[sp].d(A)[sp].d([m5C])[sp].d(A)[sp].d(T)[sp].d([m5C])[sp].d([m5C])[sp].[moe](A)p.[moe](T)p.[moe]([m5C])[sp].[moe]([m5C])}$$$$ (last 3' nucleoside missing)  0.5 score 0-7
7. RNA1{[moe](A)[sp].[moe](T)p.[moe]([m5C])p.[moe](A)p.[moe]([m5C])[sp].d([m5C])[sp].d(A)[sp].d(G)[sp].d(T)[sp].d(T)[sp].d(T)[sp].d([m5C])[sp].d(A)[sp].d(T)[sp].d(A)[sp].[moe]([m5C])p.[moe](A)p.[moe]([m5C])[sp].[moe](T)}$$$$ (last 3' nucleoside missing)  0.25 score 0-7
8. RNA1{[moe](G)[sp].[moe]([m5C])p.[moe](A)p.[moe]([m5C])p.[moe]([m5C])[sp].d(A)[sp].d(T)[sp].d([m5C])[sp].d(T)[sp].d(A)[sp].d(T)[sp].d(A)[sp].d(A)[sp].d(T)[sp].d(A)[sp].[moe]([m5C])p.[moe]([m5C])p.[moe](A)[sp].[moe](T)}$$$$ (last 3' nucleoside missing)  0 score 0-7
9. RNA1{[moe](T)[sp].[moe](G)p.[moe](G)p.[moe](T)p.[moe]([m5C])[sp].d(A)[sp].d(T)[sp].d([m5C])[sp].d(A)[sp].d(A)[sp].d([m5C])[sp].d(T)[sp].d(T)[sp].d(T)[sp].d(T)[sp].[moe](T)p.[moe](A)p.[moe](G)[sp].[moe](T)}$$$$ (last 3' nucleoside missing)  0 score 0-7
10. RNA1{[moe](T)[sp].[moe](T)p.[moe](G)p.[moe](G)p.[moe](A)[sp].d(T)[sp].d(T)[sp].d([m5C])[sp].d(A)[sp].d(T)[sp].d([m5C])[sp].d(T)[sp].d([m5C])[sp].d([m5C])[sp].d(A)[sp].[moe](T)p.[moe](A)p.[moe]([m5C])[sp].[moe](T)}$$$$ (last 3' nucleoside missing)  0 score 0-7
